Results as given in patent US20250276973A1, “CRYSTAL OF 7H-PYRROLO[2,3-D]PYRIMIDINE-4-AMINE DERIVATIVE” (TAIHO PHARMACEUTICAL CO., LTD., priority 2022, published 2025).

Key:
[1] = Solid stability test (4 weeks of storage at 80° C., closed system; HPLC); assay type: physicochemical; settings: for Chemical purity after 4 weeks of storage at 80° C.: glass bottle; for Chemical purity after 4 weeks of storage at 80° C. / Chemical purity before storage: HPLC; for Change (chemical purity): after 4 weeks at 80° C. versus before storage; for Chemical purity before storage: UV 220
Description: The solid stability of the type II crystal of Compound (1) in free form, the type III crystal of Compound (1) in free form, the type VII crystal of Compound (1) in free form, and the type VIII crystal of Compound (1) in free form obtained in the examples, reference example, and comparative example were evaluated after 4 weeks of storage by the following procedure. • Storage conditions: 80° C. (closed system) (HIFLEX (high-temperature storage chamber manufactured by ETAC)) • Storage period: 4 weeks • Storage volume: Approximately 30 mg • Storage container: Glass bottle
Changes in the mass of the related substances (the amounts of detected substances other than Compound (1)) were analyzed by HPLC according to the following method. Approximately 8 mg of each sample was weighed and dissolved in I mL of a chloroform-methanol mixture (1:1 v/v). Fifty μL of this solution was measured and diluted with 950 μL of an acetonitrile-water mixture (7:3), and 5 μL of the resulting solution was accurately measured and used as the sample for the analysis.
The mass of the related substances in the sample solution was determined by HPLC analysis. The instrument, including data processing, was handled in accordance with the method and procedure indicated for each instrument. • Column: InertSustainSwift C18 (2.1×50 mm, 1.9 μm) manufactured by GL Sciences • UV detection: […] • Column temperature: 40° C. • Flow rate: 0.3 mL/min • Sample cooler: 10° C. • Sample concentration: 0.1 mg/mL • Mobile phase A: 10 mmol/L phosphate buffer (pH 6.8)/acetonitrile (95:5) mixture • Mobile phase B: Acetonitrile • The gradients are shown in Table 4.
The solid stability of the type III crystal of Compound (1) with succinic acid, the type I crystal of Compound (1) with citric acid, the type IV crystal of Compound (1) with citric acid, the type I crystal of Compound (1) with sorbic acid, and the type I crystal of Compound (1) with phosphoric acid obtained in the examples, reference example, and comparative examples were evaluated after 4 weeks of storage. The evaluation method, storage, and measurement conditions were as described in Test Example 1.

[2] = Dynamic vapor sorption (DVS) test; assay type: physicochemical; settings: 25° C.; for Hygroscopicity (result in words): 5 to 95% RH
Description: Vapor sorption tests were performed using the type II crystal of Compound (1) in free form, the type III crystal of Compound (1) in free form, the type VII crystal of Compound (1) in free form, and the type VIII crystal of Compound (1) in free form obtained in the examples, reference example, and comparative example.
Vapor sorption tests were conducted under the following conditions.
Approximately 10 mg of the sample was filled into a specialized quartz holder to continuously measure and record the weight of the sample at each humidity was under the following conditions. The instrument, including data processing, was handled in accordance with the method and procedure indicated for each instrument. • Instrument: VTI-SA+(manufactured by TA Instruments) • Drying temperature: 60° C. • Heating rate: 1° C./min • Equilibration of drying: Confirmation of no more than 0.01 wt % decrease in 5 minutes within a period not exceeding 300 minutes • Measurement temperature: 25° C. • Equilibration of humidification: Confirmation of no more than 0.01 wt % increase in 5 minutes within a period not exceeding 120 minutes • Relative humidity program: Increase from 5 to 95% RH in increments of 5% RH, and decrease from 95% to 5% RH in increments of 5% RH. • Changes in the weight over the range of the measurement conditions obtained in these tests are shown in FIGS. 9 through 12.
Vapor sorption tests were performed using the type III crystal of Compound (1) with succinic acid, the type I crystal of Compound (1) with citric acid, the type IV crystal of Compound (1) with citric acid, the type I crystal of Compound (1) with sorbic acid, and the type I crystal of Compound (1) with phosphoric acid obtained in the examples, reference example, and comparative examples.
Vapor sorption tests were conducted under the same conditions as in Test Example 2.

[3] = listed as Type II crystal in free form

Row | Structure (SMILES) | Chemical purity after 4 weeks of storage at 80° C. ([1]; 80° C. (closed system), 4 weeks) [%] | Change (chemical purity) [1] [%] | Chemical purity before storage [1] [%] | Hygroscopicity (result in words) [2] | Reversibility of water adsorption when the humidity was decreased ([2]; decrease from 95% to 5% RH) | Chemical purity after 4 weeks of storage at 80° C. ([1]; 80° C. (closed system), 4 weeks, listed as Type II crystal in free form) [%] | Solid stability (result in words) ([1]; 80° C. (closed system), 4 weeks, related substances by HPLC) | Change (chemical purity) [1, 3] [%] | Chemical purity before storage [1, 3] [%] | Weight increase under 95% relative humidity ([2]; 95% RH) [%]
1 | C#Cc1c(-c2cnc3ccccc3c2)c2c(N)ncnc2n1C12CCC(NC(=O)c3cnc(C)cn3)(CC1)C2 [Type VIII crystal in free form, N-(4-(4-amino-6-ethynyl-5-(quinolin-3-yl)-7H-pyrrolo[2,3-d]pyrimidin-7-yl)bicyclo[2.2.1]heptan-1-yl)-5-methylpyrazine-2-carboxamide] | 99.43 | −0.19 | 99.62 | highly hygroscopic | irreversible | – | – | – | – | –
2 | C#Cc1c(-c2cnc3ccccc3c2)c2c(N)ncnc2n1C12CCC(NC(=O)c3cnc(C)cn3)(CC1)C2 [Type II crystal of Compound (1) in free form] [N-(4-(4-amino-6-ethynyl-5-(quinolin-3-yl)-7H-pyrrolo[2,3-d]pyrimidin-7-yl)bicyclo[2.2.1]heptan-1-yl)-5-methylpyrazine-2-carboxamide] | – | – | – | hardly hygroscopic | – | 99.78 | extremely stable crystals with almost no increase in the related substances | −0.02 | 99.80 | 0.16
